Read-outs that look alike come from different tables or passages of the source. Each block holds one substance with its values, some of them ahead of it.
Tests used:
[1] = molecular target: anti-CD28 Fab (SEQ ID NOs: 202, 203); experiment: Competition ELISA: peptide inhibition of anti-CD28 Fab binding to plate-bound CD28 (also alanine scanning peptides); conditions: anti-CD28 Fab fixed at 1 nM
Procedure: Ab-1 fixed at 1 nanomolar (nM) concentration was pre-incubated with 0-100 micromolar (μM) titrated peptides. After a short pre-incubation period, the mixture of titrated peptide with fixed Ab-1 were added to the CD28 antigen coated plates. After a short incubation on the plates, bound Ab-1 was detected with a standard horse radish peroxidase conjugated secondary antibody.
(§1) The anti-CD28 Fab was fixed at a concentration of 1 nM and incubated with titrated 0-100 μM peptides.

[2] = test system: anti-CD28 scFv (SEQ ID NO: 35); experiment: Kinetic binding by bio-layer interferometry (Octet RED96): anti-CD28 scFv to peptides; parameters: species or system human; conditions: for Kd: CD28 scFv titrated 100-12.5 nM, 200 nM peptide load
Procedure: (§2) Briefly, streptavidin biosensors were loaded with biotinylated peptides and baselined in buffer. […] After a short association period, sensors were transferred into buffer and the dissociation of bound anti-CD28 scFv was measured. The timing and steps of the experiment are shown in the accompanying table. Association and dissociation signals were recorded in real time and analyzed using a 1:1 binding model within the instrument software. Analysis using a 1:1 binding model enabled the calculation of the on and off rate constants as well as affinity, KD.
as §2, with “KD. FIGS. 48A-48F illustrate kinetic binding of anti-CD28 scFv binding to peptides as measured by Octet. FIGS. 48G-48U illustrate kinetic binding of peptides to the anti-CD28 scFv as measured by Octet.” for “KD.”

Ab-1 = experiment: Kinetic binding via BLI (Octet): Ab-1 binding to peptide-loaded sensors; parameters: species or system human; conditions: Table 15, 100 nM Ab-1
Procedure: (§3) Kinetic binding of the peptides of Table 1 to Ab-1 was evaluated using biolayer interferometry (BLI). Briefly, biotinylated peptides were loaded onto a streptavidin coated Octet® SAX biosensor, quenched in biocytin, and baselined in buffer. Ab-1 was titrated in solution and associated onto the peptide loaded sensor. After a short association period, sensors were transferred into buffer and the dissociation of bound Ab-1 was measured. Association and dissociation signals were recorded in real time and analyzed using a 1:1 binding model within the instrument software. Analysis using a 1:1 binding model enabled the calculation of the on and off rate constants as well as affinity, KD.

[3] = test system: anti-CD28 Fab (SEQ ID NOs: 202, 203); experiment: Kinetic binding via BLI: peptides to anti-CD28 Fab; conditions: for Off rate t½: Table 18, anti-CD28 Fab; for t½ / Kd: binding to anti-CD28 Fab
Procedure: as §3, with “Briefly, biotinylated peptides were loaded onto a streptavidin coated Octet® SAX biosensor, quenched in biocytin, and baselined in buffer.” left out
Kinetic binding of the peptides to anti-CD28 Fab (SEQ ID NOs: 202, 203) was evaluated using BLI as described above.

[4] = molecular target: anti-CD28 scFv (disulfide) (SEQ ID NO: 67); experiment: Competition ELISA: peptide inhibition of anti-CD28 scFv (disulfide) binding to plate-bound CD28
Procedure: […] After a short pre-incubation period, the mixture of titrated peptide with fixed Ab-1 were added to the CD28 antigen coated plates. After a short incubation on the plates, bound Ab-1 was detected with a standard horse radish peroxidase conjugated secondary antibody.
as §1

[5] = Table 18, 0-100 μM peptide, read-out: Competition ELISA IC50
[6] = BLI Octet RED96, biotinylated peptide loaded on streptavidin sensor, anti-CD28 scFv 100-12.5 nM, 1:1 binding model
[7] = titrated 0-100 μM peptides, plate-bound CD28 antigen, read-out: anti-CD28 Fab Competition ELISA IC50
[8] = read-out: anti-CD28 scFv (disulfide) Competition ELISA IC50, anti-CD28 scFv fixed at 0.3 nM, titrated 0-100 μM peptides, plate-bound CD28 antigen
[9] = Table 19, anti-CD28 scFv (disulfide) fixed at 0.3 nM, 0-100 μM peptide, read-out: Competition ELISA IC50
[10] = Table 17, 0-100 μM peptide, read-out: Competition ELISA IC50

Chain of anti-CD28 Fab (SEQ ID NOs: 202, 203) (as listed by the source): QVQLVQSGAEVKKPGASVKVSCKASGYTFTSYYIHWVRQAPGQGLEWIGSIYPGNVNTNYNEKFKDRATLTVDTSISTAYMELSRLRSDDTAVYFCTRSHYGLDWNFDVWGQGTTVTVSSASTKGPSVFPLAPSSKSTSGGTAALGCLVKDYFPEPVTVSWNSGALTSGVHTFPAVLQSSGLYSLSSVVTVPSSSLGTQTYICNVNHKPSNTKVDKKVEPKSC
Chain of anti-CD28 Fab (SEQ ID NOs: 202, 203) (as listed by the source): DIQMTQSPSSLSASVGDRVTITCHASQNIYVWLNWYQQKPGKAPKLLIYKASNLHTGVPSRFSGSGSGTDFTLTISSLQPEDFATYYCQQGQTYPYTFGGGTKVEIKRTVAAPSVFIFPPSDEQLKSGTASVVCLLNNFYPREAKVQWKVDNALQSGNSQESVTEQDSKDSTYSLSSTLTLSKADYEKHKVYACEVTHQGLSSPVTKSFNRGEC
Chain of anti-CD28 scFv (disulfide) (SEQ ID NO: 67) (as listed by the source): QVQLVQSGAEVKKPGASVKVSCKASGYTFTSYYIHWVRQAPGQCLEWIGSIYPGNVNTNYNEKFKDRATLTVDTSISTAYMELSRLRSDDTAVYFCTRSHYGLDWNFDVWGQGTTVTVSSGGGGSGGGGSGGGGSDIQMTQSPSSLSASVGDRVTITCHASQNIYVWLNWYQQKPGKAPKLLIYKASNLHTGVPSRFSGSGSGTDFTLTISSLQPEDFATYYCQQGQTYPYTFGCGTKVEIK
Chain of anti-CD28 scFv (SEQ ID NO: 35) (as listed by the source): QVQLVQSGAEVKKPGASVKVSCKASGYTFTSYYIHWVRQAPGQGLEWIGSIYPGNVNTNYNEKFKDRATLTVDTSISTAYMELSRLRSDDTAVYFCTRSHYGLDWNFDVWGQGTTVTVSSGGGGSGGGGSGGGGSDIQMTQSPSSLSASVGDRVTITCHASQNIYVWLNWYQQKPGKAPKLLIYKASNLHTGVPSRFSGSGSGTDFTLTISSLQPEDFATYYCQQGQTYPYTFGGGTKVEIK

- IC50 [1, 5]: > 100 µM
Substance: YCWSHSPPFIKKCY [Peptide-83, optimization library of Peptide-39]

Substance: MDWCPRDLWHLCFS [Peptide-145]
- kdis [2, 6]: 0.00265 s⁻¹
- kon [2, 6]: 51100 M⁻¹ s⁻¹

Substance: MDWCPIHLWHVCFN [Peptide-138]
- kdis [2, 6]: 0.00295 s⁻¹
- kon [2, 6]: 59100 M⁻¹ s⁻¹

Substance: MDWCPRDLWSECFF [Peptide-146]
- kdis [2, 6]: 0.0031 s⁻¹
- kon [2, 6]: 38800 M⁻¹ s⁻¹

Substance: MHWCPVDLWYLCYN [Peptide-154]
- kdis [2, 6]: 0.00186 s⁻¹
- kon [2, 6]: 88200 M⁻¹ s⁻¹

Substance: MDWCPLHMWHECFS [Peptide-141]
- kdis [2, 6]: 0.00497 s⁻¹
- kon [2, 6]: 39000 M⁻¹ s⁻¹

- Octet signal (20 nM peptide) (Ab-1): 0.1733
Substance: Met(O)-DWCPRDLWVHCFA [Peptide-20]

- Off rate t½ [3]: 54 s
Substance: YCEGHLPEYIWKCL [Peptide-87, optimization library of Peptide-39]

Substance: SCAAAASYAWPYCL [Peptide-52, alanine scanning peptide of Peptide-44]
- IC50 [1, 7]: > 100 µM
- IC50 [4, 8]: > 100 µM

Substance: SCAAGASYAWPYCL [Peptide-44]
- IC50 [4, 9]: > 100 µM

Substance: YCAGHSPINIGKCL [Peptide-36]
- IC50 [4, 9]: > 100 µM

- Off rate t½ [3]: 36 s
- t½ [3]: 36 s
Substance: YCEGHLPEYREKCL [Peptide-78, optimization library of Peptide-39]

Substance: ACAGHAWQYINKCL [Peptide-59, alanine scanning peptide of Peptide-39]
- IC50 [1, 7]: > 100 µM
- IC50 [4, 8]: > 100 µM

- Off rate t½ [3]: 54 s
- t½ [3]: 60 s
Substance: YCEGHLPEYIQKCL [Peptide-86, optimization library of Peptide-39]

- Off rate t½ [3]: 60 s
- Kd [3]: 0.0447 µM
- t½ [3]: 60 s
Substance: YCEGHLPEYLAKCL [Peptide-79, optimization library of Peptide-39]

Substance: SCAAGASYAWPYCA [Peptide-58, alanine scanning peptide of Peptide-44]
- IC50 [4, 8]: > 100 µM

Substance: MDWCPRDLWVHCFA [Peptide-1]
- kdis [2, 6]: 0.00154 s⁻¹
- kon [2, 6]: 36400 M⁻¹ s⁻¹

Substance: MDWCPRFMWDECFN [Peptide-150]
- kdis [2, 6]: 0.00364 s⁻¹
- kon [2, 6]: 27100 M⁻¹ s⁻¹

Substance: MDWCPRDMWSECFA [Peptide-148]
- kdis [2, 6]: 0.0032 s⁻¹
- kon [2, 6]: 16700 M⁻¹ s⁻¹

- IC50 [1, 5]: > 100 µM
Substance: HCSGHHWLQVWKCF [Peptide-82, optimization library of Peptide-39]

Substance: MDWCPRDMWSVCFS [Peptide-149]
- kdis [2, 6]: 0.00812 s⁻¹
- kon [2, 6]: 21700 M⁻¹ s⁻¹

- IC50 [1, 10]: > 100 µM
Substance: LCAAGFTYPWPLCL [Peptide-107, optimization library of Peptide-44]

Substance: MDWCPRYLWHVCFA [Peptide-153]
- kdis [2, 6]: 0.00187 s⁻¹
- kon [2, 6]: 88900 M⁻¹ s⁻¹

Substance: SCAAGASYAAPYCL [Peptide-55, alanine scanning peptide of Peptide-44]
- IC50 [1, 7]: > 100 µM
- IC50 [4, 8]: > 100 µM

Substance: MDWCPRDLWHECFA [Peptide-144]
- kdis [2, 6]: 0.00277 s⁻¹
- kon [2, 6]: 30000 M⁻¹ s⁻¹

Substance: YCAGHAWQAINKCL [Peptide-64, alanine scanning peptide of Peptide-39]
- IC50 [1, 7]: > 100 µM
- IC50 [4, 8]: > 100 µM

Substance: MDWCPRDLWDLCFA [Peptide-143]
- kdis [2, 6]: 0.00351 s⁻¹
- kon [2, 6]: 35900 M⁻¹ s⁻¹

- Octet signal (20 nM peptide) (Ab-1): 0.4179
Substance: Met(O)2-DWCPRDLWVHCFA [Peptide-21]

- Off rate t½ [3]: 30 s
- Kd [3]: 0.926 µM
- t½ [3]: 30 s
Substance: YCEGHLPEYIEKCL [Peptide-72, optimization library of Peptide-39]

Substance: YCAGAAWQYINKCL [Peptide-61, alanine scanning peptide of Peptide-39]
- IC50 [1, 7]: > 100 µM
- IC50 [4, 8]: > 100 µM

Substance: GYCHYWGDMVMWCG [Peptide-118]
- Kd ([2]; Table 28, 1:1 model): 0.017 µM
- kdis ([2]; Table 28, CD28 scFv, 1:1 model): 0.00167 s⁻¹
- kon ([2]; Table 28, CD28 scFv, 1:1 model): 98700 M⁻¹ s⁻¹

Substance: YCAGHAWQYINACL [Peptide-67, alanine scanning peptide of Peptide-39]
- IC50 [1, 7]: > 100 µM
- IC50 [4, 8]: > 100 µM

Substance: MDWCPRERWVDCFF [Peptide-156]
- kdis [2, 6]: 0.0115 s⁻¹
- kon [2, 6]: 41500 M⁻¹ s⁻¹

Substance: MDWCPLYLWNECFN [Peptide-142]
- kdis [2, 6]: 0.00252 s⁻¹
- kon [2, 6]: 36700 M⁻¹ s⁻¹

Substance: YCAGHAWQYINKCL [Peptide-39]
- IC50 [4, 9]: > 100 µM
- Off rate t½ [3]: 42 s
- Kd [3]: 2.02 µM
- t½ [3]: 36 s

Substance: MDWCPIDLWNECFF [Peptide-137]
- kdis [2, 6]: 0.00369 s⁻¹
- kon [2, 6]: 51400 M⁻¹ s⁻¹

Substance: MDWCPRERWVDCFF [Peptide-116]
- Kd ([2]; Table 28, 1:1 model): 0.377 µM
- kdis ([2]; Table 28, CD28 scFv, 1:1 model): 0.0123 s⁻¹
- kon ([2]; Table 28, CD28 scFv, 1:1 model): 32500 M⁻¹ s⁻¹

Substance: MDWCPIYLWSECFN [Peptide-139]
- kdis [2, 6]: 0.00153 s⁻¹
- kon [2, 6]: 29000 M⁻¹ s⁻¹

- IC50 [1, 10]: > 100 µM
Substance: LCKPGVPYKWPTCL [Peptide-108, optimization library of Peptide-44]

Substance: MNWCPKDIWYLCFN [Peptide-140]
- kdis [2, 6]: 0.00684 s⁻¹
- kon [2, 6]: 77000 M⁻¹ s⁻¹

Substance: SCAAGASYAWAYCL [Peptide-56, alanine scanning peptide of Peptide-44]
- IC50 [1, 7]: > 100 µM
- IC50 [4, 8]: > 100 µM

Substance: MDWCPVHLWSVCFA [Peptide-155]
- kdis [2, 6]: 0.00443 s⁻¹
- kon [2, 6]: 92300 M⁻¹ s⁻¹

Substance: MDWCPRHMWNYCFA [Peptide-151]
- kdis [2, 6]: 0.00218 s⁻¹
- kon [2, 6]: 61900 M⁻¹ s⁻¹

- Off rate t½ [3]: 24 s
- Kd [3]: 0.831 µM
- t½ [3]: 24 s
Substance: YCEGHAPEYIAKCL [Peptide-73, optimization library of Peptide-39]

Substance: SCAAGASAAWPYCL [Peptide-54, alanine scanning peptide of Peptide-44]
- IC50 [1, 7]: > 100 µM
- IC50 [4, 8]: > 100 µM

Substance: WCWDYKLWVPMTCP [Peptide-37]
- IC50 ([1]; Table 16, 0-100 μM peptide, read-out: Competition ELISA IC50): > 100 µM
- IC50 [4, 9]: > 100 µM

Substance: MDWCPRSLWHECFA [Peptide-152]
- kdis [2, 6]: 0.00201 s⁻¹
- kon [2, 6]: 38900 M⁻¹ s⁻¹

- Off rate t½ [3]: 48 s
- Kd [3]: 0.11 µM
- t½ [3]: 48 s
Substance: YCEGHLPEYRNKCL [Peptide-84, optimization library of Peptide-39]

Substance: YCAAHAWQYINKCL [Peptide-60, alanine scanning peptide of Peptide-39]
- IC50 [1, 7]: > 100 µM
- IC50 [4, 8]: > 100 µM

Substance: YCAGHAWQYANKCL [Peptide-65, alanine scanning peptide of Peptide-39]
- IC50 [4, 8]: > 100 µM

Substance: MDWCPRDMWDECFA [Peptide-147]
- kdis [2, 6]: 0.00433 s⁻¹
- kon [2, 6]: 28400 M⁻¹ s⁻¹

From patent US20260274955A1, “ANTIBODIES FOR TARGETING CD28 AND USES THEREOF” (Janux Therapeutics, Inc., priority 2023, published 2026)
